Results published in the PolyMetriX glass transition set.
± gives the standard deviation of the reports.

Compound	glass transition temperature [°C]
*c1ccc(Oc2ccc(S(=O)(=O)c3ccc(Oc4ccc(N5C(=O)c6ccc([Si](C)(C)c7ccc8c(c7)C(=O)N(*)C8=O)cc6C5=O)cc4)cc3)cc2)cc1 (repeat unit)	246.00
*CC(*)c1ccccc1C(=O)OCC (repeat unit)	118.00
*Oc1ccc(-c2ccc(OC(=O)c3ccc(C(=O)c4ccc(C(*)=O)cc4)cc3)c(-c3ccccc3)c2)cc1-c1ccccc1 (repeat unit)	184.50
*CC(*)c1cc(Cl)ccc1Cl (repeat unit)	108.00
*c1ccc2oc(-c3ccc(-c4nc5cc(C(*)(C(F)(F)F)C(F)(F)F)ccc5o4)cn3)nc2c1 (repeat unit)	352.00
*CC(*)c1ccccc1C(=O)OCCN(C)C (repeat unit)	69.00
*C(=O)c1ccc2c(c1)C(=O)N(c1ccc(Sc3ccc(N4C(=O)c5ccc(*)cc5C4=O)cc3)cc1)C2=O (repeat unit)	276.00
*Oc1cc(OC(=O)c2ccc(OCCCC)cc2)c(OC(=O)C(C)CCC(*)=O)cc1OC(=O)c1ccc(OCCCC)cc1 (repeat unit)	55.00
*Oc1ccc(S(=O)(=O)c2ccc(Oc3ccc(-c4ccc(*)cc4)cc3)cc2N)c(N)c1 (repeat unit)	242.20
*NNC(=O)c1ccccc1C(=O)Nc1cccc(/C=C2\CC/C(=C\c3cccc(NC(=O)c4ccccc4C(*)=O)c3)C2=O)c1 (repeat unit)	202.10
*c1ccc(-c2ccc(NC(=O)c3cccc(C(=O)Nc4ccc(-c5ccc(N6C(=O)c7ccc(Oc8ccc9c(c8)C(=O)N(*)C9=O)cc7C6=O)cc5)cc4)c3)cc2)cc1 (repeat unit)	233.00
*Nc1ccc(C(C)(C)c2cccc(C(C)(C)c3ccc(Nc4ccc(C(=O)c5ccc(C(=O)c6ccc(*)cc6)cc5)cc4)cc3)c2)cc1 (repeat unit)	177.00
*C(=O)c1ccc2c(c1)C(=O)N(c1cc(OCCCC)cc(N3C(=O)c4ccc(*)cc4C3=O)c1)C2=O (repeat unit)	244.00
*CCCCCCCCCCCN1C(=O)c2ccc(C(=O)Oc3ccc(-c4ccc(OC(=O)c5ccc6c(c5)C(=O)N(*)C6=O)cc4)cc3)cc2C1=O (repeat unit)	97.00
*c1ccc(-c2ccc(-c3cc(-c4ccc(Oc5ccc(-c6cc(*)nc7ccccc67)cc5)cc4)c4ccccc4n3)cc2)cc1 (repeat unit)	326.00
*c1ccc(Oc2ccc(C(c3ccc(Oc4ccc(-c5nc(-c6ccccn6)nnc5*)cc4)cc3)(C(F)(F)F)C(F)(F)F)cc2)cc1 (repeat unit)	224.00
*c1ccc(Oc2ccc(N3C(=O)c4ccc(Oc5ccc(S(=O)(=O)c6ccc(Oc7ccc8c(c7)C(=O)N(*)C8=O)cc6)cc5)cc4C3=O)cc2)cc1 (repeat unit)	260.00
*CCCCCCCCCOC(=O)CCC(=O)O* (repeat unit)	31.00
*C(=O)Oc1ccc(OC(=O)c2ccc3c(c2)C(=O)N(c2ccc(Oc4ccc(N5C(=O)c6ccc(*)cc6C5=O)cc4)cc2)C3=O)cc1 (repeat unit)	270.00
*C(=O)Nc1cccc(NC(=O)c2ccc3[nH]c(-c4cccc(-c5nc6cc(*)ccc6[nH]5)c4)nc3c2)c1 (repeat unit)	297.50
*CC(*)C(=O)OCCOCC(F)(F)C(F)(F)C(F)(F)F (repeat unit)	-45.00

Compound	glass transition temperature [°C]
*Oc1ccc(NC(=O)c2ccc(C(=O)Nc3ccc(Oc4ccc(C(=O)c5ccc(*)cc5)cc4)cc3)cc2)cc1 (repeat unit)	160.00
*C(=O)Nc1c(C)cc(Cc2cc(C)c(NC(=O)c3ccc4c(c3)C(=O)N(c3ccc(/N=N/c5ccc([N+](=O)[O-])cc5)c(N5C(=O)c6ccc(*)cc6C5=O)c3)C4=O)c(C)c2)cc1C (repeat unit)	280.00
*c1ccc(C(=O)c2ccc(Oc3ccc(-c4nn(*)c(=O)c5ccccc45)c(F)c3)cc2)cc1 (repeat unit)	253.00
*Oc1ccc(CC(NC(=O)CCc2ccc(OC(=O)CCCCCCC(*)=O)cc2)C(=O)OC(C)CC)cc1 (repeat unit)	46.00
*C(=O)Nc1ccc(C2(c3ccc(NC(=O)c4ccc5c(c4)C(=O)N(c4cccc(N6C(=O)c7ccc(*)cc7C6=O)c4)C5=O)cc3)c3ccccc3-c3ccccc32)cc1 (repeat unit)	209.00
*/C=C/C1CC(*)C(C(=O)OCCCCCCCCOc2ccc(/C=C/c3ccc([N+](=O)[O-])cc3)cc2)C1 (repeat unit)	51.00
*CCCCCOC(=O)CCCCCCCCCCN1C(=O)c2ccc(-c3ccc(-c4ccc5c(c4)C(=O)N(CCCCCCCCCCC(=O)OCCCCCN4C(=O)c6ccc(-c7ccc8c(c7)C(=O)N(*)C8=O)cc6C4=O)C5=O)cc3)cc2C1=O (repeat unit)	41.00
*Oc1ccc(C(C)(c2ccccc2)c2ccc(OC(=O)c3ccccc3-c3ccccc3C(*)=O)cc2)cc1 (repeat unit)	172.00
*C(F)(F)C(*)(F)Cl (repeat unit) [Poly(chlorotrifluoroethylene)]	69.47 ± 25
*c1ccc2c(c1)C(=O)N(c1ccc(Cc3ccc(N4C(=O)c5ccc(C(*)(C(F)(F)F)C(F)(F)F)cc5C4=O)c(C(C)(C)C)c3)cc1C(C)(C)C)C2=O (repeat unit)	274.00
*[Si](*)(CCCC)CCCCCC (repeat unit)	-40.00
*CCCCOC(=O)COCC(=O)O* (repeat unit)	-23.00
*Oc1ccc(SC(=O)Sc2ccc(*)cc2)cc1 (repeat unit)	117.00
*/C=C/C1CC(*)C2C(=O)N(CCCCCC)C(=O)C12 (repeat unit)	87.00
*O[Si](*)(CCCOCCOCCOCCOC)CCCOCCOCCOCCOC (repeat unit)	-69.20
*c1ccc(-c2ccc(NC(=O)c3cccc(C(=O)Nc4ccc(-c5ccc(-n6c(=O)c7cc8c(=O)n(*)c(=O)c8cc7c6=O)cc5)cc4)c3)cc2)cc1 (repeat unit)	227.00
*CCCCOC(=O)Nc1ccc(Cc2ccc(NC(=O)OCCCCn3c4ccccc4c4cc(/C=C(\C#N)C(=O)OCCCCCCOC(=O)/C(C#N)=C/c5ccc6c(c5)c5ccccc5n6*)ccc43)cc2)cc1 (repeat unit)	122.00
*c1ccc(Sc2ccc(Sc3ccc(Sc4ccc(N5C(=O)c6ccc(-c7cccc8c7C(=O)N(*)C8=O)cc6C5=O)cc4)cc3)cc2)cc1 (repeat unit)	226.70
*CCCC1(C)CCN(C(=O)CC(C)C(=O)N2CCC(*)(C)CC2)CC1 (repeat unit)	72.00
*c1ccc(N(c2ccc(C#N)cc2)c2ccc(N3C(=O)c4ccc(Oc5ccc(C(C)(C)c6ccc(Oc7ccc8c(c7)C(=O)N(*)C8=O)cc6)cc5)cc4C3=O)cc2)cc1 (repeat unit)	230.00
*C(=O)Nc1c(C)cc(C)c(NC(=O)c2ccc3c(c2)C(=O)N(c2c(C)cc(C)c(N4C(=O)c5ccc(*)cc5C4=O)c2C)C3=O)c1C (repeat unit)	288.00

Compound	glass transition temperature [°C]
*Oc1ccc(CC(NC(=O)Cc2ccc(OC(=O)CCCC(*)=O)cc2)C(=O)OCC)cc1 (repeat unit)	65.00
*CCSS* (repeat unit)	-27.00
*c1ccc(Oc2ccc(Sc3ccc(Oc4ccc(-c5cccc(*)n5)cc4C(F)(F)F)cc3)cc2)c(C(F)(F)F)c1 (repeat unit)	144.50
*CC(*)OC(=O)c1cccc(Cl)c1 (repeat unit)	61.8
*Oc1ccc(S(=O)(=O)c2ccc(Oc3ccc(C4(c5ccc(*)cc5)CCCCC4)cc3)cc2)cc1 (repeat unit)	226.00
*CC(*)c1cc(Br)ccc1OCC (repeat unit)	80.00
*CC(*)c1ccc(C(C)(C)O)cc1 (repeat unit)	170.00
*c1ccc(C(c2ccc(N3C(=O)c4ccc(OCCN(CCOc5ccc6c(c5)C(=O)N(*)C6=O)c5ccc(/C=C/c6ccc([N+](=O)[O-])cc6)cc5)cc4C3=O)cc2)(C(F)(F)F)C(F)(F)F)cc1 (repeat unit)	180.70
*OC(CC)CC(*)=O (repeat unit)	-15.40
*CC(*)C(=O)OCCCCCCCCCCCCOc1ccc(C(=O)Oc2ccc(-c3cccc(OC(=O)c4ccc(OC(=O)c5ccc(OCCCCCCCCCCCC)cc5)cc4)c3)cc2)cc1 (repeat unit)	67.00
*c1ccc(S(=O)(=O)c2ccc(-n3nc(-c4ccccc4)c4cc(Oc5ccc(C(C)(C)c6ccc(Oc7ccc8c(-c9ccccc9)nn(*)c(=O)c8c7)cc6)cc5)ccc4c3=O)cc2)cc1 (repeat unit)	210.50
*CCCNC(=O)CNC(=O)C(NC(=O)C(Cc1ccccc1)NC(=O)CCCCCCCCC(=O)NC(Cc1ccccc1)C(=O)NC(C(=O)NCC(=O)NCCCOCCOCCO*)C(C)C)C(C)C (repeat unit)	58.00
*CC(*)c1cc(Br)ccc1OCCCCC (repeat unit)	49.00
*CC(*)c1ccc([Si](C)(C)OC(C)C)cc1 (repeat unit)	180.00
*Oc1ccc2ccc(Oc3ccc(/C(=N/c4ccc(Oc5ccc(/N=C(\c6ccccc6)c6ccc(*)cc6)cc5)cc4)c4ccccc4)cc3)cc2c1 (repeat unit)	165.00
*CCCC(*)(C)C(=O)O (repeat unit)	132.00
*Oc1ccc(C(C)(C)c2ccc(Oc3ccc(C(=O)c4ccc(*)cc4)cc3)cc2)cc1 (repeat unit)	155.00
*CC(=O)Nc1ccc(Oc2cccc(NC(=O)CN3C(=O)c4ccc(C(=O)c5ccc6c(c5)C(=O)N(*)C6=O)cc4C3=O)c2)cc1 (repeat unit)	226.00
*C(=O)Nc1ccc(S(=O)(=O)c2ccc(NC(=O)c3ccc4c(c3)C(=O)N(c3cc(-c5nc6ccccc6s5)cc(N5C(=O)c6ccc(*)cc6C5=O)c3)C4=O)cc2)cc1 (repeat unit)	357.00
*CC(*)(C)C(=O)OCC(F)(F)C(F)(F)C(F)(F)C(F)(F)C(F)(F)C(F)(F)C(F)(F)C(F)F (repeat unit)	-15.00
